Assay results from PubChem BioAssay AID1963966 (Molecular Pharmacology Branch, DTP, NCI, 2024).

Tested on: 935938-334-R-J1-PDC spheroids with HUVEC/MSC, viability
Assay: Anticancer human tumor 935938-334-R-J1-PDC patient-derived small intestine adenocarcinoma cell line growth inhibition [PI3K]
Conditions: for IC50: curve of first compound; for viability, T/C: stronger effect = lower value
Method in brief: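 Viability of mixed-cell spheroids was determined after exposure to pairwise combinations, one partner being inavolisib, alpelisib, duvelisib or copanlisib. Highest tested concentration matched clinical Cmax where known and 10 microM where not, descending in half-log steps.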

[1] = second compound 0.0316 µM, first compound 0.0316 µM
[2] = second compound 0.0316 µM, first compound 0.1 µM
[3] = second compound 0.0316 µM, first compound 0.316 µM
[4] = second compound 0.0316 µM, first compound 1 µM
[5] = second compound 0.0316 µM, first compound 3.16 µM
[6] = second compound 0.0316 µM, first compound 10 µM
[7] = second compound 0.1 µM, first compound 0.0316 µM
[8] = second compound 0.1 µM, first compound 0.1 µM
[9] = second compound 0.1 µM, first compound 0.316 µM
[10] = second compound 0.1 µM, first compound 1 µM
[11] = second compound 0.1 µM, first compound 3.16 µM
[12] = second compound 0.1 µM, first compound 10 µM
[13] = second compound 0.316 µM, first compound 0.0316 µM
[14] = second compound 0.316 µM, first compound 0.1 µM
[15] = second compound 0.316 µM, first compound 0.316 µM
[16] = second compound 0.316 µM, first compound 1 µM
[17] = second compound 0.316 µM, first compound 3.16 µM
[18] = second compound 0.316 µM, first compound 10 µM
[19] = second compound 1 µM, first compound 0.0316 µM
[20] = second compound 1 µM, first compound 0.1 µM
[21] = second compound 1 µM, first compound 0.316 µM
[22] = second compound 1 µM, first compound 1 µM
[23] = second compound 1 µM, first compound 3.16 µM
[24] = second compound 1 µM, first compound 10 µM
[25] = second compound 3.16 µM, first compound 0.0316 µM
[26] = second compound 3.16 µM, first compound 0.1 µM
[27] = second compound 3.16 µM, first compound 0.316 µM
[28] = second compound 3.16 µM, first compound 1 µM
[29] = second compound 3.16 µM, first compound 3.16 µM
[30] = second compound 3.16 µM, first compound 10 µM
[31] = second compound 10 µM, first compound 0.0316 µM
[32] = second compound 10 µM, first compound 0.1 µM
[33] = second compound 10 µM, first compound 0.316 µM
[34] = second compound 10 µM, first compound 1 µM
[35] = second compound 10 µM, first compound 3.16 µM
[36] = second compound 10 µM, first compound 10 µM
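Note: compound exposure lasted seven days before viability was read.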
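Throughout, for viability, T/C: percent of vehicle DMSO treated spheroid viability so 100% = untreated.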

C#Cc1c(F)ccc2cc(O)cc(-c3ncc4c(N5CC6CCC(C5)N6)nc(OCC56CCCN5CC(F)C6)nc4c3F)c12 (stereo not drawn) + CC(Nc1ncnc2nc[nH]c12)c1cc2cccc(Cl)c2c(=O)n1-c1ccccc1
IC50 (second compound 0.0316 µM): 4.52 µM | IC50 (second compound 0.1 µM): 3.15 µM | IC50 (second compound 0.316 µM): 3.98 µM | IC50 (second compound 1 µM): 2.84 µM | IC50 (second compound 3.16 µM): 2.23 µM | IC50 (second compound 10 µM): 0.663 µM | viability, T/C [1]: 83.8% | viability, T/C [2]: 82.3% | viability, T/C [3]: 83.2% | viability, T/C [4]: 65.5% | viability, T/C [5]: 56.8% | viability, T/C [6]: 39% | viability, T/C [7]: 99.4% | viability, T/C [8]: 97% | viability, T/C [9]: 91.9% | viability, T/C [10]: 65.5% | viability, T/C [11]: 53.3% | viability, T/C [12]: 42.9% | viability, T/C [13]: 88.8% | viability, T/C [14]: 103% | viability, T/C [15]: 89.3% | viability, T/C [16]: 74.1% | viability, T/C [17]: 54.3% | viability, T/C [18]: 37.8% | viability, T/C [19]: 76.7% | viability, T/C [20]: 73.2% | viability, T/C [21]: 60.4% | viability, T/C [22]: 52.4% | viability, T/C [23]: 57.4% | viability, T/C [24]: 39.1% | viability, T/C [25]: 82.8% | viability, T/C [26]: 82.8% | viability, T/C [27]: 110% | viability, T/C [28]: 69.8% | viability, T/C [29]: 44.5% | viability, T/C [30]: 30.3% | viability, T/C [31]: 70% | viability, T/C [32]: 73.8% | viability, T/C [33]: 60.4% | viability, T/C [34]: 44.2% | viability, T/C [35]: 36.2% | viability, T/C [36]: 34%

C=CC(=O)N1CCN(c2nc(=O)n(-c3c(C)ccnc3C(C)C)c3nc(-c4c(O)cccc4F)c(F)cc23)C(C)C1 (stereo not drawn) + CC(Nc1ncnc2nc[nH]c12)c1cc2cccc(Cl)c2c(=O)n1-c1ccccc1
IC50 (second compound 0.0316 µM): > 10 µM | IC50 (second compound 0.1 µM): > 10 µM | IC50 (second compound 0.316 µM): > 10 µM | IC50 (second compound 1 µM): > 10 µM | IC50 (second compound 3.16 µM): > 10 µM | IC50 (second compound 10 µM): > 10 µM | viability, T/C [1]: 94.2% | viability, T/C [2]: 103% | viability, T/C [3]: 96.4% | viability, T/C [4]: 84.3% | viability, T/C [5]: 83.9% | viability, T/C [6]: 95.8% | viability, T/C [7]: 105% | viability, T/C [8]: 123% | viability, T/C [9]: 96.8% | viability, T/C [10]: 120% | viability, T/C [11]: 114% | viability, T/C [12]: 108% | viability, T/C [13]: 86% | viability, T/C [14]: 88.7% | viability, T/C [15]: 88.3% | viability, T/C [16]: 95.7% | viability, T/C [17]: 98.2% | viability, T/C [18]: 87.6% | viability, T/C [19]: 96.7% | viability, T/C [20]: 106% | viability, T/C [21]: 64% | viability, T/C [22]: 94.8% | viability, T/C [23]: 73.4% | viability, T/C [24]: 68.9% | viability, T/C [25]: 71.3% | viability, T/C [26]: 84.3% | viability, T/C [27]: 89.5% | viability, T/C [28]: 85.1% | viability, T/C [29]: 95% | viability, T/C [30]: 72.2% | viability, T/C [31]: 62.1% | viability, T/C [32]: 99.5% | viability, T/C [33]: 96.8% | viability, T/C [34]: 84.5% | viability, T/C [35]: 75.5% | viability, T/C [36]: 68.8%

CC(Cn1ccc(-c2ccc(C#N)c(Cl)c2)n1)NC(=O)c1cc(C(C)O)[nH]n1 (stereo not drawn) + CC(Nc1ncnc2nc[nH]c12)c1cc2cccc(Cl)c2c(=O)n1-c1ccccc1
IC50 (second compound 0.0316 µM): > 10 µM | IC50 (second compound 0.1 µM): > 10 µM | IC50 (second compound 0.316 µM): > 10 µM | IC50 (second compound 1 µM): > 10 µM | IC50 (second compound 3.16 µM): > 10 µM | IC50 (second compound 10 µM): > 10 µM | viability, T/C [1]: 98.6% | viability, T/C [2]: 93.4% | viability, T/C [3]: 97.3% | viability, T/C [4]: 111% | viability, T/C [5]: 117% | viability, T/C [6]: 108% | viability, T/C [7]: 124% | viability, T/C [8]: 85.2% | viability, T/C [9]: 88.7% | viability, T/C [10]: 99% | viability, T/C [11]: 93.9% | viability, T/C [12]: 113% | viability, T/C [13]: 94.3% | viability, T/C [14]: 116% | viability, T/C [15]: 116% | viability, T/C [16]: 98.2% | viability, T/C [17]: 74.5% | viability, T/C [18]: 102% | viability, T/C [19]: 110% | viability, T/C [20]: 105% | viability, T/C [21]: 128% | viability, T/C [22]: 102% | viability, T/C [23]: 103% | viability, T/C [24]: 96% | viability, T/C [25]: 94.5% | viability, T/C [26]: 77.3% | viability, T/C [27]: 105% | viability, T/C [28]: 91.2% | viability, T/C [29]: 94.6% | viability, T/C [30]: 104% | viability, T/C [31]: 79.7% | viability, T/C [32]: 69.8% | viability, T/C [33]: 82% | viability, T/C [34]: 68.4% | viability, T/C [35]: 87.6% | viability, T/C [36]: 97.8%

CC1(C)CCC(Nc2ncc(C(F)(F)F)c(-c3c[nH]c4c(P(C)(C)=O)c(C#N)ccc34)n2)CN1 (stereo not drawn) + CC(Nc1ncnc2nc[nH]c12)c1cc2cccc(Cl)c2c(=O)n1-c1ccccc1
IC50 (second compound 0.0316 µM): < 0.0316 µM | IC50 (second compound 0.1 µM): < 0.0316 µM | IC50 (second compound 0.316 µM): < 0.0316 µM | IC50 (second compound 1 µM): < 0.0316 µM | IC50 (second compound 3.16 µM): < 0.0316 µM | IC50 (second compound 10 µM): < 0.0316 µM | viability, T/C [1]: 43% | viability, T/C [2]: 46.4% | viability, T/C [3]: 31.9% | viability, T/C [4]: 35.3% | viability, T/C [5]: 34.8% | viability, T/C [6]: 5.59% | viability, T/C [7]: 42.3% | viability, T/C [8]: 36.5% | viability, T/C [9]: 32.7% | viability, T/C [10]: 36.9% | viability, T/C [11]: 35.1% | viability, T/C [12]: 6.35% | viability, T/C [13]: 38% | viability, T/C [14]: 37.1% | viability, T/C [15]: 41.2% | viability, T/C [16]: 36.5% | viability, T/C [17]: 26.8% | viability, T/C [18]: 6.84% | viability, T/C [19]: 42% | viability, T/C [20]: 35.5% | viability, T/C [21]: 41% | viability, T/C [22]: 34.8% | viability, T/C [23]: 33.2% | viability, T/C [24]: 7.47% | viability, T/C [25]: 30.8% | viability, T/C [26]: 38.6% | viability, T/C [27]: 41.8% | viability, T/C [28]: 36.2% | viability, T/C [29]: 32.6% | viability, T/C [30]: 5.17% | viability, T/C [31]: 37.8% | viability, T/C [32]: 37% | viability, T/C [33]: 35.9% | viability, T/C [34]: 35.1% | viability, T/C [35]: 28.5% | viability, T/C [36]: 5.58%
